Data published in PubChem BioAssay (NCI).
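Grown in 96-well plates, cells were treated for 48 hours with each compound at five concentrations. Insufficient inhibition: endpoint recorded as highest concentration tested. Here, GI50 denotes the concentration required for 50% inhibition of growth. TGI: total growth inhibition.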

Key:
Experiment in all cases: NCI-60 cell line screen, 48 h
HT29 colon = tested on: HT29 colon
IGROV1 ovarian = tested on: IGROV1 ovarian
KM12 colon = tested on: KM12 colon
NCI-H460 lung = tested on: NCI-H460 lung
SK-MEL-5 melanoma = tested on: SK-MEL-5 melanoma
SK-OV-3 ovarian = tested on: SK-OV-3 ovarian
SN12C renal = tested on: SN12C renal
U251 CNS = tested on: U251 CNS
UACC-62 melanoma = tested on: UACC-62 melanoma
DU-145 prostate = tested on: DU-145 prostate
HOP-92 NSCLC = tested on: HOP-92 NSCLC

Row | Structure (SMILES) | GI50 (HT29 colon) | TGI (HT29 colon) | GI50 (IGROV1 ovarian) | TGI (IGROV1 ovarian) | GI50 (KM12 colon) | TGI (KM12 colon) | GI50 (NCI-H460 lung) | TGI (NCI-H460 lung) | GI50 (SK-MEL-5 melanoma) | TGI (SK-MEL-5 melanoma) | GI50 (SK-OV-3 ovarian) | TGI (SK-OV-3 ovarian) | GI50 (SN12C renal) | TGI (SN12C renal) | GI50 (U251 CNS) | TGI (U251 CNS) | GI50 (UACC-62 melanoma) | TGI (UACC-62 melanoma) | TGI (DU-145 prostate) | TGI (HOP-92 NSCLC)
1 | N#C[S-].[La+3].c1ccc(-c2ccccn2)nc1.c1ccc(-c2ccccn2)nc1.c1ccc(-c2ccccn2)nc1 | 18.7 µM | > 100 µM | 25.6 µM | 60.5 µM | 51 µM | > 100 µM | 22.5 µM | 88.2 µM | 10.4 µM | 34.8 µM | 31.7 µM | 99.6 µM | 19.2 µM | > 100 µM | 20.1 µM | > 100 µM | 19.5 µM | 50.3 µM |  | 
2 | O=c1cc(-c2cccc(OC(F)(F)F)c2)[nH]c2ccc(N3CCCC3)cc12 |  | 0.00166 µM |  |  |  | 0.00249 µM |  |  |  | 0.0105 µM |  |  |  | 55.9 µM |  | 16.5 µM |  | 96.8 µM | 0.177 µM | > 100 µM
3 | Clc1cc(N/N=C(\c2ccccc2)c2ccccn2)ncn1 |  | > 100 µM |  | 89.9 µM |  | > 100 µM |  | 83.1 µM |  | 4.2 µM |  | 2 µM |  |  |  | > 100 µM |  | 2.7 µM | > 100 µM | > 100 µM
